Assay results: paper PMC2033597, “The Arg-Gly-Asp-containing peptide, rhodostomin, inhibits in vitro cell adhesion to extracellular matrices and platelet aggregation caused by saos-2 human osteosarcoma cells” (British Journal of Cancer, 1995)
Where two headings read alike, the source gives them in different places.

Legend:
[1] = test system: Saos-2 tumour cell-induced platelet aggregation in heparinised human platelet-rich plasma; assay type: cell-based; details: for IC50: heparinised human PRP preincubated with peptide at 37C for 2 min, then Saos-2 cells, n = 6, read-out: IC50 for inhibition of Saos-2 TCIPA
Source text: Brils JownW d Canmer (15) 71, 265-270 ? 1995 S9okon Press Al rghts reserved 0007-0920/95 $9.00 V The Arg-Gly-Asp-containing peptide, rhodostomin, inhibits in vitro cell adhesion to extracellular matrices and platelet aggregation caused by Saos-2 human osteosarcoma cells H-S Chiang', R-S Yang2 and T-F Huang' 'Pharmacological Institute and 'Department of Orthopaedics, College of Medicine, National Taiwan UniversitY, Taipei, Taiwan. Sumary Saos-2 cells, derived from a primary human osteosarcoma, caused dose-dependent platelet aggrega- tion in heparinised human platelet-rich plasma. […] The cell suspension shortened the plasma recalcification times of normal, factor VIII-deficient and factor IX-deficient human plasmas in a dose- dependent manner. […] Moreover, a monoclonal antibody (MAb) against human tissue factor completely abolished TCIPA. […] Keywords: osteosarcoma; platelet aggregation; tissue factor: integrin; extracellular matrix: Arg-Gly-Asp- containing peptide The formation of a metastatic lesion is the result of a com- plex series of events called the 'metastatic cascade'. Following intravasation, circulating tumour cells interact with a variety of host cells such as effectors of the cellular immune res- ponses, endothelial cells and platelets. The interaction of tumour cells and host platelets may promote the metastatic process (Honn et al., 1992). Indeed, there is evidence that the incidence of lymph node metastasis caused by ten cell lines, from rat renal carcinoma, in vivo correlates well with their ability to induce platelet aggregation in vitro (Pearlstein et al., 1980). Platelets may enhance tumour cell adhesion to endothelial cells and subendothelial surfaces during the haematogenous metastasis process. The cell-cell or cell-extracellular matrix (ECM) interactions of both normal and tumour cells have been proven to be mediated by a variety of plasma memb- rane receptors including the integrin family (Hynes et al., 1987). Integrins are transmembrane proteins which link the ECM with the cell cytoskeleton. Such linkage enables cellular attachment to substrata and forms focal adhesion plaques in distinct plasma membrane regions which establish contact with the matrix (Grunicke, 1990). […] Purified components from snake venoms have been widely studied and found to affect platelet function, including trigramin-like anti-platelet peptides (Huang et al., 1987a, 1991a,b; Shebuski et al., 1989; Rucinski et al., 1990). Trigra- min, an RGD-containing peptide purified from venom of the Trimeresurus gramineus snake, is a specific antagonist of platelet membrane […] (Huang et al., 1987a, 1989). […] These peptides all contain the RGD sequence, are rich in cysteine and bind with high affinity to the surface of platelets. The in vitro metastatic characterisation of osteosarcoma is not yet well understood. In the present study, we examined in vitro the TCIPA caused by Saos-2 human osteosarcoma cells. We probed Saos-2 TCIPA with a variety of inhibitors and monoclonal antibodies in order to characterise fully the mechanism of this phenomenon. […] Materals and metbods Materials Saos-2 human osteosarcoma cells were obtained from ATCC (American Type Culture Collection) Laboratory. Crude venom of Agkistrodon rhodostoma (or Calloselasma rhodos- toma) was purchased from Latoxan (Rosans, France) and stored at -20?C. Rhodostomin was purified from venom of A. rhodostoma as previously described (Huang et al., 1989, 1990). GRGDS was purchased from Peninsula Laboratories, CA, USA. Gly-Arg-Gly-Glu-Ser (GRGES) was synthesised by the Biochemical Institute, College of Medicine, National Taiwan University. Apyrase (grade III), heparin, hirudin (grade IV from leeches), fibronectin (from bovine plasma), vitronectin (from human plasma), laminin (from basement membrane of mouse sarcoma), collagen type I (from calf skin) and type IV were obtained from Sigma (St Louis, MO, USA). Tissue thromboplastin reagent was Simplastin Excel standard (Organon Teknika, NC, USA). […]

[2] = test system: Saos-2 cell adhesion to RGD-dependent ECM; experiment: Saos-2 cell adhesion to RGD-dependent ECM (overall); assay type: cell-based, human; details: fibronectin, vitronectin, collagen type I
Source text: Brils JownW d Canmer (15) 71, 265-270 ? 1995 S9okon Press Al rghts reserved 0007-0920/95 $9.00 V The Arg-Gly-Asp-containing peptide, rhodostomin, inhibits in vitro cell adhesion to extracellular matrices and platelet aggregation caused by Saos-2 human osteosarcoma cells H-S Chiang', R-S Yang2 and T-F Huang' 'Pharmacological Institute and 'Department of Orthopaedics, College of Medicine, National Taiwan UniversitY, Taipei, Taiwan. Sumary Saos-2 cells, derived from a primary human osteosarcoma, caused dose-dependent platelet aggrega- tion in heparinised human platelet-rich plasma. […] The cell suspension shortened the plasma recalcification times of normal, factor VIII-deficient and factor IX-deficient human plasmas in a dose- dependent manner. […] Moreover, a monoclonal antibody (MAb) against human tissue factor completely abolished TCIPA. […] Keywords: osteosarcoma; platelet aggregation; tissue factor: integrin; extracellular matrix: Arg-Gly-Asp- containing peptide The formation of a metastatic lesion is the result of a com- plex series of events called the 'metastatic cascade'. Following intravasation, circulating tumour cells interact with a variety of host cells such as effectors of the cellular immune res- ponses, endothelial cells and platelets. The interaction of tumour cells and host platelets may promote the metastatic process (Honn et al., 1992). […]

**Q.** For `N=C(N)NCCC[C@H](NC(=O)CN)C(=O)NCC(=O)N[C@@H](CC(=O)O)C(=O)N[C@@H](CO)C(=O)O` [GRGDS, Gly-Arg-Gly-Asp-Ser], which IC50 [1] is on record?
**A.** 560 µM

**Q.** How did the “Inhibition of Saos-2 TCIPA” value ([1]; GRGES 1 mg ml-1, pretreatment of platelets) turn out when “Gly-Arg-Gly-Glu-Ser [GRGES, peptide synthesised by the Biochemical Institute, National Taiwan University]” was run?
**A.** no significant effect

**Q.** What does the source list for apyrase?
**A.** Inhibition of Saos-2 TCIPA ([1]; apyrase 0.5 U ml-1 final concentration in PRP, preincubated at 37C for 2 min): did not inhibit; Lag phase preceding TCIPA ([1]; apyrase 0.5 U ml-1 in PRP): prolonged

**Q.** heparin was tested. Which “Lag phase preceding platelet aggregation” value ([1]; heparin raised from 1 to 6 units ml-1 (data not shown)) did it give?
**A.** markedly prolonged

**Q.** With hirudin as the compound, how does the “Inhibition of Saos-2 TCIPA” value ([1]; hirudin 5 U ml-1, PRP preincubated at 37C for 2 min) read?
**A.** completely inhibited

**Q.** Which results are given for rhodostomin?
**A.** Potency relative to GRGDS in inhibiting Saos-2 cell adhesion to RGD-dependent ECM, on a molar basis [2]: ~1000 fold; IC50 [1]: 0.03 µM; Potency relative to GRGDS in inhibiting TCIPA, on a molar basis ([1]; ratio of IC50 values): about 18 000 fold; Inhibition of Saos-2 TCIPA ([1]; rhodostomin, pretreatment of platelets): complely inhibited
